Test results: patent publication US9980943B2, “Methods of treating muscular dystrophy” (BOARD OF REGENTS OF THE NEVADA SYSTEM OF HIGHER EDUCATION, …, priority 2013, dated 2018)
Read-outs that look alike come from different tables or passages of the source.

Legend:
Format in all cases: cell-based, mouse
[1] = tested on: β-galactosidase in CMV-LacZ C2C12 myotubes; test: CMV-LacZ secondary screen in C2C12 myotubes (β-Gal stabilizing assay); details: for CMV-LACZ in Myotubes (β-galactosidase activity relative to DMSO): CMV-LacZ C2C12 myotubes, 96-well format
Method in brief: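 Stable CMV-LacZ C2C12 clone; six-point curve 0.5–40 μM; duplicates.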

[2] = tested on: α7 integrin (LacZ reporter in α7+/LacZ myotubes); test: Myotube α7 integrin FDG assay (Burkin assay in myotubes, 96-well); details: myotubes; for fold induction at 0.5 µM / fold induction at 1 µM / fold induction at 5 µM / fold induction at 10 µM / fold induction at 20 µM / fold induction at 40 µM: Mus musculus, Myotube
[3] = tested on: α7 integrin (LacZ reporter in α7βgal+/− myoblasts); test: Myoblast α7+/LacZ integrin FDG assay (Burkin assay in myoblasts, 96-well); details: α7+/LacZ myoblasts, 96-well; for fold induction at 0.5 µM / fold induction at 1 µM / fold induction at 5 µM / fold induction at 10 µM / fold induction at 20 µM / fold induction at 40 µM: Mus musculus, Myoblast, 48 h
[4] = 5 uM, C2C12 CMV-LacZ myotubes, fold relative to DMSO
[5] = 10 uM, C2C12 CMV-LacZ myotubes, fold relative to DMSO
[6] = 20 uM, C2C12 CMV-LacZ myotubes, fold relative to DMSO
[7] = 40 uM, C2C12 CMV-LacZ myotubes, fold relative to DMSO

Row | Structure (SMILES) | CMV-LACZ in Myotubes, signal relative to DMSO [1, 4] | CMV-LACZ in Myotubes, signal relative to DMSO [1, 5] | CMV-LACZ in Myotubes, signal relative to DMSO [1, 6] | CMV-LACZ in Myotubes, signal relative to DMSO [1, 7] | Burkin Assay in Myotubes (signal relative to DMSO) ([2]; 0.5 uM) | Burkin Assay in Myotubes (signal relative to DMSO) ([2]; 1 uM) | Burkin Assay in Myotubes (signal relative to DMSO) ([2]; 5 uM) | Burkin Assay in Myotubes (signal relative to DMSO) ([2]; 10 uM) | Burkin Assay in Myotubes (signal relative to DMSO) ([2]; 20 uM) | Burkin Assay in Myotubes (signal relative to DMSO) ([2]; 40 uM) | Burkin Assay in Myoblasts, value relative to DMSO ([3]; 0.5 uM) | Burkin Assay in Myoblasts, value relative to DMSO ([3]; 1 uM) | Burkin Assay in Myoblasts, value relative to DMSO ([3]; 5 uM) | Burkin Assay in Myoblasts, value relative to DMSO ([3]; 10 uM) | Burkin Assay in Myoblasts, value relative to DMSO ([3]; 20 uM) | Burkin Assay in Myoblasts, value relative to DMSO ([3]; 40 uM) | CMV-LACZ in Myotubes (β-galactosidase activity relative to DMSO) ([1]; 5 uM) | CMV-LACZ in Myotubes (β-galactosidase activity relative to DMSO) ([1]; 10 uM) | CMV-LACZ in Myotubes (β-galactosidase activity relative to DMSO) ([1]; 20 uM) | CMV-LACZ in Myotubes (β-galactosidase activity relative to DMSO) ([1]; 40 uM) | also measured
1 | COC(=O)c1ccc(COC(=O)CNC(=O)c2cccs2)cc1 [MLS001123810-01] | 0.8812 | 0.815 | 1.159 | 0.9346 | 0.974 | 0.9657 | 1.417 | 1.116 | 0.9515 | 0.9694 | 0.9767 | 0.9524 | 0.9782 | 0.9779 | 0.8853 | 0.8729 | – | – | – | – | –
2 | COc1ccc(NC(=O)c2cccc(N3C(=O)c4ccc(C(=O)Nc5ccc(OC)c(O)c5)cc4C3=O)c2)cc1O [MLS001124732-01] | 1.025 | 1.016 | 1.07 | 0.972 | – | – | – | – | – | – | – | – | – | – | – | – | – | – | – | – | Burkin Assay in Myotubes, α7 integrin LacZ reporter signal relative to DMSO ([2]; 0.5 uM): 1.0065; Burkin Assay in Myotubes, α7 integrin LacZ reporter signal relative to DMSO ([2]; 1 uM): 1.029; Burkin Assay in Myotubes, α7 integrin LacZ reporter signal relative to DMSO ([2]; 5 uM): 0.8759; Burkin Assay in Myotubes, α7 integrin LacZ reporter signal relative to DMSO ([2]; 10 uM): 0.8964; Burkin Assay in Myotubes, α7 integrin LacZ reporter signal relative to DMSO ([2]; 20 uM): 0.8719; Burkin Assay in Myotubes, α7 integrin LacZ reporter signal relative to DMSO ([2]; 40 uM): 0.7888; Burkin Assay in Myoblasts, signal relative to DMSO ([3]; 0.5 uM): 1.121; Burkin Assay in Myoblasts, signal relative to DMSO ([3]; 1 uM): 1.071; Burkin Assay in Myoblasts, signal relative to DMSO ([3]; 5 uM): 0.8622; Burkin Assay in Myoblasts, signal relative to DMSO ([3]; 10 uM): 0.8125; Burkin Assay in Myoblasts, signal relative to DMSO ([3]; 20 uM): 0.6893; Burkin Assay in Myoblasts, signal relative to DMSO ([3]; 40 uM): 0.6581
3 | COc1cc(NC(=O)C2C3C=CC(C3)C2C(=O)O)ccc1NC(=O)c1ccccc1 (stereo not shown) [MLS001125488-01] | – | – | – | – | – | – | – | – | – | – | – | – | – | – | – | – | – | – | – | – | fold induction at 5 µM ([1]; Mus musculus, C2C12, read-out: CMV-LACZ in Myotubes, signal relative to DMSO, 5 uM, C2C12 CMV-LacZ myotubes, fold relative to DMSO): 0.747; fold induction at 10 µM ([1]; Mus musculus, C2C12, read-out: CMV-LACZ in Myotubes, signal relative to DMSO, 10 uM, C2C12 CMV-LacZ myotubes, fold relative to DMSO): 0.968; fold induction at 20 µM ([1]; Mus musculus, C2C12, read-out: CMV-LACZ in Myotubes, signal relative to DMSO, 20 uM, C2C12 CMV-LacZ myotubes, fold relative to DMSO): 1.18; fold induction at 40 µM ([1]; Mus musculus, C2C12, read-out: CMV-LACZ in Myotubes, signal relative to DMSO, 40 uM, C2C12 CMV-LacZ myotubes, fold relative to DMSO): 0.872; fold induction at 0.5 µM ([2]; 0.5 uM, read-out: Burkin Assay in Myotubes, α7 integrin LacZ reporter signal relative to DMSO): 1.03; fold induction at 1 µM ([2]; 1 uM, read-out: Burkin Assay in Myotubes, α7 integrin LacZ reporter signal relative to DMSO): 1.15; fold induction at 5 µM ([2]; 5 uM, read-out: Burkin Assay in Myotubes, α7 integrin LacZ reporter signal relative to DMSO): 1.12; fold induction at 10 µM ([2]; 10 uM, read-out: Burkin Assay in Myotubes, α7 integrin LacZ reporter signal relative to DMSO): 1.32; fold induction at 20 µM ([2]; 20 uM, read-out: Burkin Assay in Myotubes, α7 integrin LacZ reporter signal relative to DMSO): 1.14; fold induction at 40 µM ([2]; 40 uM, read-out: Burkin Assay in Myotubes, α7 integrin LacZ reporter signal relative to DMSO): 1.22; fold induction at 0.5 µM ([3]; 0.5 uM, read-out: Burkin Assay in Myoblasts, signal relative to DMSO): 0.933; fold induction at 1 µM ([3]; 1 uM, read-out: Burkin Assay in Myoblasts, signal relative to DMSO): 0.976; fold induction at 5 µM ([3]; 5 uM, read-out: Burkin Assay in Myoblasts, signal relative to DMSO): 0.99; fold induction at 10 µM ([3]; 10 uM, read-out: Burkin Assay in Myoblasts, signal relative to DMSO): 0.879; fold induction at 20 µM ([3]; 20 uM, read-out: Burkin Assay in Myoblasts, signal relative to DMSO): 0.907; fold induction at 40 µM ([3]; 40 uM, read-out: Burkin Assay in Myoblasts, signal relative to DMSO): 0.923
4 | Cc1ccc(S(=O)(=O)N2CN(CC3CCCO3)c3nc4ccccc4nc32)c(C)c1 (stereo not shown) [MLS001139288-01] | 1.247 | 1.047 | 1.096 | 1.0825 | – | – | – | – | – | – | – | – | – | – | – | – | – | – | – | – | Burkin Assay in Myotubes, α7 integrin LacZ reporter signal relative to DMSO ([2]; 0.5 uM): 0.9234; Burkin Assay in Myotubes, α7 integrin LacZ reporter signal relative to DMSO ([2]; 1 uM): 0.8525; Burkin Assay in Myotubes, α7 integrin LacZ reporter signal relative to DMSO ([2]; 5 uM): 0.9829; Burkin Assay in Myotubes, α7 integrin LacZ reporter signal relative to DMSO ([2]; 10 uM): 0.9777; Burkin Assay in Myotubes, α7 integrin LacZ reporter signal relative to DMSO ([2]; 20 uM): 1.313; Burkin Assay in Myotubes, α7 integrin LacZ reporter signal relative to DMSO ([2]; 40 uM): 0.7808; Burkin Assay in Myoblasts, signal relative to DMSO ([3]; 0.5 uM): 0.9823; Burkin Assay in Myoblasts, signal relative to DMSO ([3]; 1 uM): 0.9709; Burkin Assay in Myoblasts, signal relative to DMSO ([3]; 5 uM): 0.8634; Burkin Assay in Myoblasts, signal relative to DMSO ([3]; 10 uM): 0.9225; Burkin Assay in Myoblasts, signal relative to DMSO ([3]; 20 uM): 1.085; Burkin Assay in Myoblasts, signal relative to DMSO ([3]; 40 uM): 0.9336
5 | COc1ccc(S(=O)(=O)N2CCN(C(=O)C3CCC3)CC2)cc1 [MLS001139515-01] | – | – | – | – | 0.9636 | 1.009 | 1.013 | 0.9488 | 1.124 | 1.013 | 0.9225 | 0.9852 | 1.053 | 1.16 | 0.8336 | 0.8527 | 0.9404 | 0.7604 | 0.9237 | 0.9601 | –
6 | COc1ccc(C(=O)N/C(=C/c2cccnc2)C(=O)N2CCN(C)CC2)cc1OC [MLS001140657-01] | – | – | – | – | 1.034 | 0.9506 | 1.083 | 0.9981 | 0.9948 | 0.9708 | 0.9918 | 0.962 | 0.9528 | 0.8768 | 0.8568 | 0.7978 | 1.053 | 1.046 | 1.05 | 1.075 | –
7 | COCCn1c(=N)c(S(=O)(=O)c2ccc(Br)cc2)cc2c(=O)n3ccccc3nc21 [MLS001141113-01] | – | – | – | – | – | – | – | – | – | – | – | – | – | – | – | – | 1.134 | 1.383 | 0.9823 | 1.913 | fold induction at 0.5 µM ([2]; 0.5 uM, read-out: Burkin Assay in Myotubes (signal relative to DMSO)): 1.04; fold induction at 1 µM ([2]; 1 uM, read-out: Burkin Assay in Myotubes (signal relative to DMSO)): 0.854; fold induction at 5 µM ([2]; 5 uM, read-out: Burkin Assay in Myotubes (signal relative to DMSO)): 1.05; fold induction at 10 µM ([2]; 10 uM, read-out: Burkin Assay in Myotubes (signal relative to DMSO)): 0.929; fold induction at 20 µM ([2]; 20 uM, read-out: Burkin Assay in Myotubes (signal relative to DMSO)): 0.887; fold induction at 40 µM ([2]; 40 uM, read-out: Burkin Assay in Myotubes (signal relative to DMSO)): 0.812; fold induction at 0.5 µM ([3]; 0.5 uM, read-out: Burkin Assay in Myoblasts, value relative to DMSO): 1.23; fold induction at 1 µM ([3]; 1 uM, read-out: Burkin Assay in Myoblasts, value relative to DMSO): 1.06; fold induction at 5 µM ([3]; 5 uM, read-out: Burkin Assay in Myoblasts, value relative to DMSO): 1.08; fold induction at 10 µM ([3]; 10 uM, read-out: Burkin Assay in Myoblasts, value relative to DMSO): 1.07; fold induction at 20 µM ([3]; 20 uM, read-out: Burkin Assay in Myoblasts, value relative to DMSO): 0.915; fold induction at 40 µM ([3]; 40 uM, read-out: Burkin Assay in Myoblasts, value relative to DMSO): 0.56
